Measurements taken from patent publication US8748398B2, “Stroke-targeting peptide and use thereof” (Kyungpook National University Industry-Academic Cooperation …, priority 2008, dated 2014).
Where no end group is shown, it is not given here.

Key:
[1] = test system: ipsilateral (ischemic) hemisphere of a brain; test: In vivo screening of phage-displayed CX7C peptide library, frequency of selected clones; conditions: 30 phage clones randomly selected in second and third rounds, rat with occluded MCA
ischemic stroke tissue [2] = test: In vivo targeting of fluorescein-labeled peptide, fluorescence microscopy of frozen sections with TTC and TUNEL staining; parameters: species or system rat; conditions: for targeting to the contralateral tissue / targeting to the ipsilateral tissue: fluorescein peptide into left ventricle 24 hours after ischemic injury
ischemic stroke tissue [3] = test: Autoradiogram of absorption of 131I-labeled peptide in ischemic stroke tissue; format: in vivo, rat
[4] = test system: β-tubulin-positive neuron cell and GFAP-positive astrocyte in the ischemic brain tissue; test: Immunofluorescence staining for the type of cells bound to the peptide (anti-tubulin, anti-GFAP); format: in vivo, rat; conditions: 24 hours after ischemic injury
[5] = tail vein 24 hours after ischemic injury, 1-hour circulation

| Substance | Frequency (%) [1] | Frequency (clones with the sequence / clones sequenced) [1] | targeting to the contralateral tissue (ischemic stroke tissue [2]; 15-minute circulation) | targeting to the ipsilateral tissue (ischemic stroke tissue [2]; 15-minute circulation) | also measured |
| --- | --- | --- | --- | --- | --- |
| CTKRNAPDC (Stroke-targeting peptide 4) | (10%) | 3/30 | – | – | – |
| CRSAVAKNC (Stroke-targeting peptide 3) | (17%) | 5/30 | – | – | – |
| CKRGGATAC (Stroke-targeting peptide 2) | (23%) | 7/30 | – | – | – |
| CNSREVLKC [CNSREVLKC peptide, reference compound] | – | – | not observed | not observed | – |
| ^131I-CLEVSRKNC peptide: CLEVSRKNC peptide (SEQ ID NO: 1) labeled with radioisotope 131I (cysteine pairing not given here; also: 131I radiolabel) | – | – | – | – | absorption in a general brain of a control group rat (ischemic stroke tissue [3]; 1-hour circulation): insufficient; absorption rate by optically stimulated luminescence (ischemic stroke tissue [3]; 4 coronal sections, third day vs first and seventh day, P<0.01): very high absorption rate on the third day; time course of absorption in ischemic tissue after ischemic injury (ischemic stroke tissue [3]; first, third and seventh day after ischemic injury): reached a peak on the third day; absorption in the contralateral region (ischemic stroke tissue [3]; [5]): insufficient; absorption in the ipsilateral hemisphere (ischemic stroke tissue [3]; [5]): observed in the ipsilateral hemisphere |
| CLEVSRKNC (Stroke-targeting peptide 1) | (30%) | 9/30 | not targeted to the contralateral tissue | targeted to the ipsilateral tissue | co-localisation with GFAP-positive astrocyte in the ischemic brain tissue [4]: did not correspond; co-localisation with β-tubulin-positive neuron cell in the ischemic brain tissue [4]: corresponded to the position of β-tubulin-positive neuron cell; targeting in a neuron cell and an astrocyte in the contralateral brain tissue [4]: not observed; targeting to the ischemic hemisphere (ischemic stroke tissue [2]; 2-hour circulation (data not noted)): targeted to the ischemic hemisphere; targeting to control group organs (spleen, liver, lung) (ischemic stroke tissue [2]; 15-minute circulation): little; region of the stroke tissue where targeting was observed (ischemic stroke tissue [2]; 15-minute circulation, TTC staining): observed in a penumbra; binding to TUNEL-stained apoptotic cells in the penumbra (ischemic stroke tissue [2]; TUNEL staining of frozen sections): most of the apoptotic cells stained with TUNEL, except for some of them, were bound |
